IC50 data for 29 compounds are collected here from US10208059B2, “Heterocyclic modulators of HIF activity for treatment of disease” (Board of Regents, University of Texas System, priority 2012, dated 2019).

pIC50: −log10 of the molar value. A value given as a limit tells only on which side of the number the result lay.

The assay concerns 293T-HRE-GFP-luc cells. The assay is described as follows: Cell-based reporter assay for IC50 determinations. The settings on record: hypoxia 6 hrs (1% O2), luminescence, read-out: IC50 Classification. The essentials: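 IC50 comes from a four-parameter logistic fit of luminescence from HRE-GFP-luc 293T cells. Compounds (1:3 series, 1:50 medium dilution) were preincubated 30 min under normoxia, followed by 6 h at 1% O2, 5% CO2, 37 °C, before Steadylite luciferase detection.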
A general note: Reporter assays use an easily measured gene product as a stand-in for the process of interest.
In the case of `Cc1nc(-c2nc(-c3ccc(OC(F)(F)F)cc3)no2)nn1Cc1cccc(S(=O)(=O)NC2CC2)c1` [Example 130, N-cyclopropyl-3-[(5-methyl-3-{3-[4-(trifluoromethoxy)phenyl]-1,2,4-oxadiazol-5-yl}-1H-1,2,4-triazol-1-yl)methyl]benzene-1-sulfonamide], the pIC50 (as a rule, the IC50 on a negative log10 scale, so that one unit is a factor of ten) is above 7.00.
Regarding `Cc1nc(-c2nc(-c3ccc(OC(F)(F)F)cc3)no2)nn1Cc1cccc(S(=O)(=O)NCCO)c1` [Example 131, 2-hydroxy-S-(3-[(5-methyl-3-{3-[4-(trifluoromethoxy)phenyl]-1,2,4-oxadiazol-5-yl}-1H-1,2,4-triazol-1-yl)methyl]phenyl}ethane-1-sulfonamido], the pIC50 was above 7.00.
The value for `COC(=O)[C@@H](NS(=O)(=O)c1cccc(Cn2nc(-c3nc(-c4ccc(OC(F)(F)F)cc4)no3)nc2C)c1)C(C)C` [Example 132, methyl (2S)-3-methyl-2-{3-[(5-methyl-3-{3-[4-(trifluoromethoxy)phenyl]-1,2,4-oxadiazol-5-yl}-1H-1,2,4-triazol-1-yl)methyl]benzenesulfonamido}butanoate] was 6.00 to 7.00; that for `Cc1nc(-c2nc(-c3ccc(OC(F)(F)F)cc3)no2)nn1Cc1cccc(S(=O)(=O)N2CCCC2)c1` [Example 133, 5-(5-methyl-1-{[3-(pyrrolidine-1-sulfonyl)phenyl]methyl}-1H-1,2,4-triazol-3-yl)-3-[4-(trifluoromethoxy)phenyl]-1,2,4-oxadiazole] was above 7.00; that for `COC(=O)CNS(=O)(=O)c1cccc(Cn2nc(-c3nc(-c4ccc(OC(F)(F)F)cc4)no3)nc2C)c1` [Example 134, methyl 2-{3-[(5-methyl-3-{3-[4-(trifluoromethoxy)phenyl]-1,2,4-oxadiazol-5-yl}-1H-1,2,4-triazol-1-yl)methyl]benzenesulfonamido}acetate] was above 7.00.
As for `COc1cc(Cn2nc(-c3nc(-c4ccc(OC(F)(F)F)cc4)no3)nc2C)ccn1` [Example 135, 2-methoxy-4-[(5-methyl-3-{3-[4-(trifluoromethoxy)phenyl]-1,2,4-oxadiazol-5-yl}-1H-1,2,4-triazol-1-yl)methyl]pyridine], the pIC50 was 6.00 to 7.00.
As for `CNS(=O)(=O)c1cccc(Cn2nc(-c3nc(-c4ccc(OC(F)(F)F)cc4)no3)nc2C)c1` [Example 136, N-methyl-3-[(5-methyl-3-{3-[4-(trifluoromethoxy)phenyl]-1,2,4-oxadiazol-5-yl}-1H-1,2,4-triazol-1-yl)methyl]benzene-1-sulfonamide], the pIC50 is above 7.00.
Turning to `CCCNS(=O)(=O)c1cccc(Cn2nc(-c3nc(-c4ccc(OC(F)(F)F)cc4)no3)nc2C)c1` [Example 137, 3-[(5-methyl-3-{3-[4-(trifluoromethoxy)phenyl]-1,2,4-oxadiazol-5-yl}-1H-1,2,4-triazol-1-yl)methyl]-N-propylbenzene-1-sulfonamide], the negative logarithm of the IC50 (pIC50) was above 7.00.
Take `Cc1nc(-c2nc(-c3ccc(OC(F)(F)F)cc3)no2)nn1Cc1cccc(S(=O)(=O)NCC(C)(C)O)c1` [Example 138, 2-hydroxy-2-methyl-S-{3-[(5-methyl-3-{3-[4-(trifluoromethoxy)phenyl]-1,2,4-oxadiazol-5-yl}-1H-1,2,4-triazol-1-yl)methyl]phenyl}propane-1-sulfonamido]: the negative-log IC50 (pIC50) was above 7.00.
As to `Cc1nc(-c2nc(-c3ccc(OC(F)(F)F)cc3)no2)nn1Cc1cccc(S(=O)(=O)NCC(N)=O)c1` [Example 139, 2-{3-[(5-methyl-3-{3-[4-(trifluoromethoxy)phenyl]-1,2,4-oxadiazol-5-yl}-1H-1,2,4-triazol-1-yl)methyl]benzenesulfonamido}acetamide], the pIC50 was 6.00 to 7.00.
The value for `COCCCn1cc(Cn2nc(-c3nc(-c4ccc(OC(F)(F)F)cc4)no3)nc2C)ccc1=O` [Example 140, 1-(3-methoxypropyl)-5-[(5-methyl-3-{3-[4-(trifluoromethoxy)phenyl]-1,2,4-oxadiazol-5-yl}-1H-1,2,4-triazol-1-yl)methyl]-1,2-dihydropyridin-2-one] was 6.00 to 7.00; that for `Cc1nc(-c2nc(-c3ccc(OC(F)(F)F)cc3)no2)nn1Cc1ccnc(OCCCO)c1` [Example 141, 3-({4-[(5-methyl-3-{3-[4-(trifluoromethoxy)phenyl]-1,2,4-oxadiazol-5-yl}-1H-1,2,4-triazol-1-yl)methyl]pyridin-2-yl}oxy)propan-1-ol] was above 7.00.
Consider `COCCCn1ccc(Cn2nc(-c3nc(-c4ccc(OC(F)(F)F)cc4)no3)nc2C)cc1=O` [Example 142, 1-(3-methoxypropyl)-4-[(5-methyl-3-{3-[4-(trifluoromethoxy)phenyl]-1,2,4-oxadiazol-5-yl}-1H-1,2,4-triazol-1-yl)methyl]-1,2-dihydropyridin-2-one], for which the pIC50 is 6.00 to 7.00.
The value for `Cc1nc(-c2nc(-c3ccc(OC(F)(F)F)cc3)no2)nn1Cc1ccnc(OCCN(C)C)c1` [Example 143, dimethyl[2-({4-[(5-methyl-3-{3-[4-(trifluoromethoxy)phenyl]-1,2,4-oxadiazol-5-yl}-1H-1,2,4-triazol-1-yl)methyl]pyridin-2-yl}oxy)ethyl]amine] was 6.00 to 7.00.
As for `Cc1nc(-c2nc(-c3ccc(OC(F)(F)F)cc3)no2)nn1Cc1cccc(OCCCS(C)(=O)=O)c1` [Example 144, 5-(1-([3-(3-methanesulfonylpropoxy)phenyl]methyl)-5-methyl-1H-1,2,4-triazol-3-yl)-3-[4-(trifluoromethoxy)phenyl]-1,2,4-oxadiazole], the figure is above 7.00.
Consider `Cc1nc(-c2nc(-c3ccc(OC(F)(F)F)cc3)no2)nn1Cc1cccc(N2CCNC(=O)C2)c1` [Example 145, 4-{3-[(5-methyl-3-{3-[4-(trifluoromethoxy)phenyl]-1,2,4-oxadiazol-5-yl}-1H-1,2,4-triazol-1-yl)methyl]phenyl]piperazin-2-one], for which the negative logarithm of the IC50 (pIC50) is above 7.00.
For `Cc1nc(-c2nc(-c3ccc(OC(F)(F)F)cc3)no2)nn1Cc1ccnc(N2CCC(S(C)(=O)=O)CC2)c1` [Example 146, 2-(4-methanesulfonylpiperidin-1-yl)-4-[(5-methyl-3-{3-[4-(trifluoromethoxy)phenyl]-1,2,4-oxadiazol-5-yl}-1H-1,2,4-triazol-1-yl)methyl]pyridine], the pIC50 is above 7.00.
On to `Cc1nc(-c2nc(-c3ccc(OC(F)(F)F)cc3)no2)nn1Cc1cccc(N2CCCS2(=O)=O)c1` [Example 147, 2-(3-((5-methyl-3-(3-(4-(trifluoromethoxy)phenyl)-1,2,4-oxadiazol-5-yl)-1H-1,2,4-triazol-1-yl)methyl)phenyl)isothiazolidine 1,1-dioxide], for which the pIC50 was above 7.00.
As for `Cc1nc(-c2nc(-c3ccc(OC(F)(F)F)cc3)cs2)nn1Cc1cccc(N2CCN(C)CC2)c1` [Example 148, 1-methyl-4-{3-[(5-methyl-3-{4-[4-(trifluoromethoxy)phenyl]-1,3-thiazol-2-yl}-1H-1,2,4-triazol-1-yl)methyl]phenyl}piperazine], the figure is above 7.00; as for `Cc1ccc(Cn2nc(-c3nc(-c4ccc(OC(F)(F)F)cc4)cs3)nc2C)cc1` [Example 149, 5-methyl-1-[(4-methylphenyl)methyl]-3-{4-[4-(trifluoromethoxy)phenyl]-1,3-thiazol-2-yl}-1H-1,2,4-triazole], above 7.00.
Turning to `COC(=O)c1cccc(Cn2nc(-c3nc(-c4ccc(OC(F)(F)F)cc4)cs3)nc2C)c1` [Example 150, methyl 3-[(5-methyl-3-{4-[4-(trifluoromethoxy)phenyl]-1,3-thiazol-2-yl}-1H-1,2,4-triazol-1-yl)methyl]benzoate], the pIC50 is 6.00 to 7.00.
As for `Cc1nc(-c2nc(-c3ccc(OC(F)(F)F)cc3)cs2)nn1Cc1cccc(O)c1` [Example 151, 3-[(5-methyl-3-{4-[4-(trifluoromethoxy)phenyl]-1,3-thiazol-2-yl}-1H-1,2,4-triazol-1-yl)methyl]phenol], the negative logarithm of the IC50 (pIC50) was 6.00 to 7.00.
In the case of `Cc1nc(-c2ncc(-c3ccc(OC(F)(F)F)cc3)o2)nn1Cc1cccc(N2CCN(C)CC2)c1` [Example 152, 1-methyl-4-{3-[(5-methyl-3-{5-[4-(trifluoromethoxy)phenyl]-1,3-oxazol-2-yl}-1H-1,2,4-triazol-1-yl)methyl]phenyl}piperazine], the negative logarithm of the IC50 (pIC50) is above 7.00.
As to `Cc1nc(-c2ncc(-c3ccc(OC(F)(F)F)cc3)o2)nn1Cc1cccc(S(=O)(=O)N2CCOCC2)c1` [Example 153, 4-{3-[(5-methyl-3-{5-[4-(trifluoromethoxy)phenyl]-1,3-oxazol-2-yl}-1H-1,2,4-triazol-1-yl)methyl]benzenesulfonyl}morpholine], the pIC50 was 6.00 to 7.00.
As for `Cc1ccc(Cn2nc(-c3ncc(-c4ccc(OC(F)(F)F)cc4)o3)nc2C)cc1` [Example 154, 5-methyl-1-[(4-methylphenyl)methyl]-3-{5-[4-(trifluoromethoxy)phenyl]-1,3-oxazol-2-yl}-1H-1,2,4-triazole], the figure is 6.00 to 7.00; as for `COC(=O)c1cccc(Cn2nc(-c3ncc(-c4ccc(OC(F)(F)F)cc4)o3)nc2C)c1` [Example 155, methyl 3-[(5-methyl-3-{5-[4-(trifluoromethoxy)phenyl]-1,3-oxazol-2-yl}-1H-1,2,4-triazol-1-yl)methyl]benzoate], 6.00 to 7.00.
For `Cc1nc(-c2ncc(-c3ccc(OC(F)(F)F)cc3)o2)nn1Cc1cccc(O)c1` [Example 156, 3-[(5-methyl-3-{5-[4-(trifluoromethoxy)phenyl]-1,3-oxazol-2-yl}-1H-1,2,4-triazol-1-yl)methyl]phenol], the pIC50 was 5.00 to 6.00.
As to `Cc1nc(-c2ncc(-c3ccc(OC(F)(F)F)cc3)o2)nn1Cc1cccc(C(=O)N(C)C)c1` [Example 157, N,N-dimethyl-3-[(5-methyl-3-{5-[4-(trifluoromethoxy)phenyl]-1,3-oxazol-2-yl}-1H-1,2,4-triazol-1-yl)methyl]benzamide], the pIC50 is 6.00 to 7.00.
The value for `COCCOc1cccc(Cn2nc(-c3ncc(-c4ccc(OC(F)(F)F)cc4)o3)nc2C)c1` [Example 158, l-{[3-(2-methoxyethoxy)phenyl]methyl}-5-methyl-3-{5-[4-(trifluoromethoxy)phenyl]-1,3-oxazol-2-yl}-1H-1,2,4-triazole] was above 7.00.
